Legend:
[1] = Glucuronidation in liver microsomes (tissue comparison); assay type: in vitro ADME, human; settings: 10 μmol/L, 60 minutes, n = 1
CYP2C19 = assay: CYP induction in primary human hepatocytes: CYP2C19; assay type: in vitro ADME; settings: male, 48 h
Experimental: Human hepatocytes isolated from three Caucasian males were transferred to 48‐well collagen‐coated plates at 0.14 × 10^6 cells/well in planting media for attachment. After attachment, planting media was replaced with sandwich media and the cells were incubated until clusters were established. […] The incubation solutions were aspirated and replaced with freshly prepared incubation solutions containing ataluren for an additional 24 hours. […] The incubation solutions were then aspirated and 150 µL of K‐H buffer containing CYP substrates were added. […] Metabolite formation in incubations with test compounds and control inhibitors was assessed with validated LC‐MS/MS methods for each of the reaction products as described in Table S2. Enzymatic activity for each CYP was calculated using the absolute amount of metabolite formed (pmol) divided by hepatocytes in the incubation (million cells) and the incubation time (minute). The relative fold induction in enzymatic activity was calculated by comparing the rate of metabolite formation for treatment groups to that of the solvent control group (reported as vehicle control%) or positive control group (reported as positive control%).

[2] = Metabolism of [14C]-ataluren in pooled human liver microsomes with cofactors; assay type: in vitro ADME
Experimental: [^14C]‐Ataluren at 1, 10, and 100 μmol/L was incubated (n = 3) with pooled HLM (1 mg protein/mL) at 37 ± 1°C in 0.2 mL incubation mixtures (final volume) containing potassium phosphate buffer (50 mmol/L, pH 7.4), MgCl2 (3 mmol/L), and EDTA (1 mmol/L) with and without cofactors, NADPH‐generating system (1 mmol/L NADP, 5 mmol/L glucose‐6‐phosphate, and 1 unit/mL glucose‐6‐phosphate dehydrogenase), and uridine diphosphate glucuronic acid (UDPGA, 8 mmol/L). [^14C]‐Ataluren was added in DMSO (final percent of 0.1% v/v). Reactions were started by the addition of the cofactors and terminated by the addition of stop reagent (0.2 mL of 2% v/v formic acid/acetonitrile) at 0, 60, and 120 minutes. Precipitated protein was removed by centrifugation (920 g for 10 minutes at 10°C). The supernatant fractions were analyzed by LC/RAM/MS to determine percent loss of substrate in incubations. Detailed LC/MS conditions are summarized in LC‐MS/MS Analysis section. After chromatographic separation, the detected radioactive peaks were integrated, and their identity was confirmed using mass spectrometry analysis. [^14C]‐ataluren remaining at specific timepoint after incubation was compared with the amount of [^14C]‐ataluren at 0 minutes incubation sample in the same matrix (eg, with or without cofactors etc) to calculate the percentage of ataluren remaining. The percentage of [^14C]‐ataluren acyl glucuronide formation at specific timepoint after incubation was calculated using the amount of metabolite formed over the total radioactivity in each sample.
[^14C]‐Ataluren and metabolites were monitored by LC/RAM/MS system, which consisted of two Shimadzu LC‐10ATvp pumps (Shimadzu Scientific Instruments, Columbia, MD, USA), a Shimadzu SIL‐5000 autosampler, an IN/US Systems β‐RAM radiometric detector (LabLogic), and a Sciex API 4000 QTRAP triple quadrupole mass spectrometer (Sciex) equipped with a Turbo Ionspray ionization source operated in negative ionization mode. The Ionspray voltage was set at 4.5 kV with the source temperature at 450 °C. MS/MS was carried out with nitrogen as the collision gas. The column used was a Phenomenex Luna C8, 3 μm, 150 × 3.0 mm column (Phenomenex, Torrance, CA, USA). Mobile phase A consisted of 0.2% formic acid in water and mobile phase B consisted of 0.2% formic acid in acetonitrile. The flow rate was 0.50 mL/min with gradient program as follows: hold isocratic at 5% B for 2 minutes; linear gradient from 5% B to 60% B in 20 minutes; linear gradient from 60% B to 95% B in 5 minutes and hold isocratic at 95% B for 2 minutes; linear gradient from 95% B to 5% B in 0.5 minutes and hold isocratic at […] for 3.5 minutes.

[3] = DMD patients, oral 10, 10, 20 mg/kg/day (morning, mid-day and evening dose); read-out: mean Cmax at the steady state; cited from earlier work

O=C(O)c1cccc(-c2noc(-c3ccccc3F)n2)c1 [ataluren, Ataluren]
ataluren loss [1]: 31.4%
Vehicle control %, Mean (CYP2C19; 4 µM): 112%
Vehicle control %, Mean (CYP2C19; 400 µM): 99.0%
ataluren loss ([2]; NADPH fortified HLM, 1, 10 and 100 µmol/L, up to 120 minutes): no ataluren loss was observed
ataluren loss ([2]; UDPGA fortified HLM, 1 µmol/L, 120 minutes, n = 3): 32%
ataluren loss ([2]; UDPGA fortified HLM, 10 µmol/L, 120 minutes, n = 3): 31%
ataluren loss ([2]; UDPGA fortified HLM, 100 µmol/L, 120 minutes, n = 3): 18%
Cmax [3]: ~79.9 µM

From article PMC7083565, “In vitro metabolism, reaction phenotyping, enzyme kinetics, CYP inhibition and induction potential of ataluren” (Pharmacology Research & Perspectives, 2020)
